According to US10844077B2, “Thiazolyl-containing compounds for treating proliferative diseases” (Dana-Farber Cancer Institute, Inc., priority 2014, dated 2020):
Values joined by “and” are separate entries in the source; they are usually repeats but may differ in a detail not shown here. Equal values may be shown once. Read-outs that look alike come from different tables or passages of the source.

How the values were obtained:
MAP2K1, MAP2K2 = test: KINATIV assay; format: cell-based; settings: 1 μM, 90 minutes, BCWM.1 cells
Procedure, shortened: (§1)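 Steps: harvest and lyse cells; label lysate directly with ATP-biotin probe; identify and quantitate probe-bound kinases by ACTIVX.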

p38a = p38a (Homo sapiens (Human), UniProt Q16539); test: KINATIV assay; format: cell-based; settings: 1 μM, 90 minutes, BCWM.1 cells
Sequence of p38a (Q16539 whole entry): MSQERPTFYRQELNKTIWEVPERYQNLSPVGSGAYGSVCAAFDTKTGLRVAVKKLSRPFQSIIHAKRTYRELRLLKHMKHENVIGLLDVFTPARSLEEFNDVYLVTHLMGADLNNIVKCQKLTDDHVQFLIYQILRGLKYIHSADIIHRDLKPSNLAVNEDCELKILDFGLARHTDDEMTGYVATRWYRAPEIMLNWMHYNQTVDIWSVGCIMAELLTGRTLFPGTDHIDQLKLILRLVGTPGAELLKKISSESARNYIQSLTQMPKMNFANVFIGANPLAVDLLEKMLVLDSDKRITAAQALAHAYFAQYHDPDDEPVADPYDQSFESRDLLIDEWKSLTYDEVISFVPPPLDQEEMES
Procedure, shortened: as §1

CDK7 = CDK7 (Homo sapiens (Human), UniProt P50613); test: KINATIV assay; format: cell-based; settings: 1 μM, 90 minutes, BCWM.1 cells
Procedure, shortened: as §1

DNAPK = DNAPK (Homo sapiens (Human), UniProt P78527); test: KINATIV assay; format: cell-based; settings: 1 μM, 90 minutes, BCWM.1 cells
Procedure, shortened: as §1

IKKb = IKKb (Homo sapiens (Human), UniProt O14920); test: KINATIV assay; format: cell-based; settings: 1 μM, 90 minutes, BCWM.1 cells
Sequence of IKKb (O14920 whole entry): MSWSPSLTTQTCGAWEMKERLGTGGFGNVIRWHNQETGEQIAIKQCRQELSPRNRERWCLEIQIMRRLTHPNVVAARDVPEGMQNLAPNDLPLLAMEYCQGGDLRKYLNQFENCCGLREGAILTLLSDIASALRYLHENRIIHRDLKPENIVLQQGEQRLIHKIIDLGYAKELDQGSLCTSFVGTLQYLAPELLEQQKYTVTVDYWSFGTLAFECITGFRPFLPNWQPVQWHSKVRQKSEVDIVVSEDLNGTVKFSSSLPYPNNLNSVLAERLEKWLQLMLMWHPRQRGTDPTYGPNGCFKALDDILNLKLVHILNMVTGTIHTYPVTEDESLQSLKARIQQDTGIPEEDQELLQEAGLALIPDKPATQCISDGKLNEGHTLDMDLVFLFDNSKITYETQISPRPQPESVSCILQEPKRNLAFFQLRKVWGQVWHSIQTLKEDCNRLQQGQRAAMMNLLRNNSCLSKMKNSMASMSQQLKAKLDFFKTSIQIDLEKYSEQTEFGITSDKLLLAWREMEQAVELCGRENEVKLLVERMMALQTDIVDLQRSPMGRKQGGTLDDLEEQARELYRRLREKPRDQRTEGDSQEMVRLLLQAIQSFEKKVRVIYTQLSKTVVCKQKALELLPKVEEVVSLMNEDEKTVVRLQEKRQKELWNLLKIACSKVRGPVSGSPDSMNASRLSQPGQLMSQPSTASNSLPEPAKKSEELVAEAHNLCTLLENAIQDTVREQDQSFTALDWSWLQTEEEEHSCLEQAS
Procedure, shortened: as §1

JAK3 domain2 = JAK3 domain2 (Homo sapiens (Human), UniProt P52333); test: KINATIV assay; format: cell-based; settings: 1 μM, 90 minutes, BCWM.1 cells
Procedure, shortened: as §1

PFTAIRE1 = PFTAIRE1 (Homo sapiens (Human), UniProt O94921)
Sequence of PFTAIRE1 (O94921 whole entry, looked up): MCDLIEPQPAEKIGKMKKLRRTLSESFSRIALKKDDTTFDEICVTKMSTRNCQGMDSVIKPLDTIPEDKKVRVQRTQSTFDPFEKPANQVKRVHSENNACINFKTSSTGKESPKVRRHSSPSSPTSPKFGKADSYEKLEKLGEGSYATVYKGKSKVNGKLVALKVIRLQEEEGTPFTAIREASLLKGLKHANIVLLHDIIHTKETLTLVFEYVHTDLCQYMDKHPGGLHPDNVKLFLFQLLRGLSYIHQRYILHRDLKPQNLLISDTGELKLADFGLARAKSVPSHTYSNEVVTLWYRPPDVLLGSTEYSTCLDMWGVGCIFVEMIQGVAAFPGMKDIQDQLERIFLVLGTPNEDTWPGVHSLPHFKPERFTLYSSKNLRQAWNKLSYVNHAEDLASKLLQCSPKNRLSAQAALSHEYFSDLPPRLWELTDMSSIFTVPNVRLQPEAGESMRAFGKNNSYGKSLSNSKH
Description: The cells were harvested and lysed. The lysates were directly labeled with an ATP-biotin probe. Bound kinases were identified and quantitated by ACTIVX as described in Patricelli et al., Biochemistry, 2007, 46(2): 350-358. The compounds were tested in duplicates against duplicate or quadruplicate control samples.

BTK = BTK (Homo sapiens (Human), UniProt Q06187); test: BTK inhibitory activity; format: biochemical
BCWM.1 = test: CellTiter-Glo Luminescent cell viability assay; format: cell-based; settings: cell survival, 72 hours
Description: (§2) The inhibitory activities of exemplary compounds described herein against select protein kinases and cells were determined. Cell survival following treatment of exemplary compounds described herein was assessed by CellTiter-Glo® Luminescent cell viability assay (Promega). The cells were seeded into 384 well plates with the EL406 Combination Washer Dispenser (BioTek Instruments, Inc.), and a series diluted exemplary compounds (20˜0.0006 μM) were injected into the culture media with the JANUS Automated Workstation (PerkinElmer Inc.). The cells were treated for 72 hours at 37° C. with 5% CO2. Luminescent measurement is performed using the 2104 Envision® Multilabel Reader (PerkinElmer Inc.). EC50 values were calculated with […] PRISM software.

HBL-1 = test: CellTiter-Glo Luminescent cell viability assay; format: cell-based; settings: cell survival, 72 hours
Description: as §2

MWCL-1 = test: CellTiter-Glo Luminescent cell viability assay; format: cell-based; settings: cell survival, 72 hours
Description: as §2

OCI-Ly19 = test: CellTiter-Glo Luminescent cell viability assay; format: cell-based; settings: cell survival, 72 hours
Description: as §2

Ramos = test: CellTiter-Glo Luminescent cell viability assay; format: cell-based; settings: cell survival, 72 hours
Description: as §2

TMD-8 = test: CellTiter-Glo Luminescent cell viability assay; format: cell-based; settings: cell survival, 72 hours
Description: as §2

SLK = SLK (Homo sapiens (Human), UniProt Q9H2G2); test: KINATIV assay; format: cell-based; settings: 1 μM, 90 minutes, BCWM.1 cells
Sequence of SLK (Q9H2G2 whole entry): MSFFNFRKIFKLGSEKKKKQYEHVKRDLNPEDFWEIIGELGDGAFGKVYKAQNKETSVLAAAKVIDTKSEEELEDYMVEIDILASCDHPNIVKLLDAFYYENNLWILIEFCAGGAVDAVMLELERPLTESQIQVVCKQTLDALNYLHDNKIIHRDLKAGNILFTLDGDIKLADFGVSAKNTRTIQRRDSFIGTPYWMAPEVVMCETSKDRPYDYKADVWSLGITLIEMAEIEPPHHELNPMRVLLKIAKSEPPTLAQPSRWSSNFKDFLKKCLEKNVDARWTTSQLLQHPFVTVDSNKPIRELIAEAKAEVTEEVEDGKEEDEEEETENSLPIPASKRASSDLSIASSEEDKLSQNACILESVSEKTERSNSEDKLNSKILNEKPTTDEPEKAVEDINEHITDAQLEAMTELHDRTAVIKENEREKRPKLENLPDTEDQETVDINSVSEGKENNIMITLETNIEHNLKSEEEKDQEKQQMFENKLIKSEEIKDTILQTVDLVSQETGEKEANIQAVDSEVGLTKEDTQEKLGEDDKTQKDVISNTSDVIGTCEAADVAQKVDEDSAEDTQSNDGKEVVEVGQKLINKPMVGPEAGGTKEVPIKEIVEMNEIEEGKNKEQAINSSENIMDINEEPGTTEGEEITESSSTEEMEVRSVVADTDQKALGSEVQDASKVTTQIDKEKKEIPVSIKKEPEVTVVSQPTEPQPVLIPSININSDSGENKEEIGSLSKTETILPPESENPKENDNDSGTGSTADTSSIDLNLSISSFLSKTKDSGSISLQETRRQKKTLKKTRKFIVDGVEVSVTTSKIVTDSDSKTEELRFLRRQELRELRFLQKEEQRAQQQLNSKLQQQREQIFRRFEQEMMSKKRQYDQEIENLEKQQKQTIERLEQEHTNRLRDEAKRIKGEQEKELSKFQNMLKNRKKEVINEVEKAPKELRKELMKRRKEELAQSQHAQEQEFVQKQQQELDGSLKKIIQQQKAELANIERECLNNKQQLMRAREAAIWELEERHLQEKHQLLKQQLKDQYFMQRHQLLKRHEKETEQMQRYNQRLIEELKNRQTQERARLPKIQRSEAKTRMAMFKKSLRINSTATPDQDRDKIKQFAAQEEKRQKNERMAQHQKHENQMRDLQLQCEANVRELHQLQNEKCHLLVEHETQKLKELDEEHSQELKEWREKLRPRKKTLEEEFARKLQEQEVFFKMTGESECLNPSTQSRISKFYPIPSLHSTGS
Procedure, shortened: as §1

NDR1 = NDR1 (Homo sapiens (Human), UniProt Q15208); test: KINATIV assay; format: cell-based; settings: 1 μM, 90 minutes, BCWM.1 cells
Sequence of NDR1 (Q15208 whole entry): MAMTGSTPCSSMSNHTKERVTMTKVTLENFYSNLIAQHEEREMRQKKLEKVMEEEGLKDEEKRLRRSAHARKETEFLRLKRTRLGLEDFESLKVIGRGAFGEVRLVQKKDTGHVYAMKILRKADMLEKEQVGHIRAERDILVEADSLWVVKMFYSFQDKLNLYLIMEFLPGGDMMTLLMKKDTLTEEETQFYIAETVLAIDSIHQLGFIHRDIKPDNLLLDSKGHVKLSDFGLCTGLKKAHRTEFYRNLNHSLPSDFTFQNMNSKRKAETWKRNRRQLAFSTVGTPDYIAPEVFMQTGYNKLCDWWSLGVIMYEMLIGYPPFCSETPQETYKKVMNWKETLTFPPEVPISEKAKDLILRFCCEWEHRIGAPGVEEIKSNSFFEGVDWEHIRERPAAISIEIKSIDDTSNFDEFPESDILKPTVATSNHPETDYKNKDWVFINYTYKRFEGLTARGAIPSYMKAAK
Procedure, shortened: as §1

kinases in BCWM.1 cells [1] = target: kinases in BCWM.1 cells (Homo sapiens, UniProt O14965); test: KINATIV assay of compounds I-3 and I-9, lysate directly labeled with ATP-biotin probe (no GF); format: cell-based
Description: (§3) The cells were harvested and lysed. […] Bound kinases were identified and quantitated by ACTIVX as described in Patricelli et al., Biochemistry, 2007, 46(2): 350-358. The compounds were tested in duplicates against duplicate or quadruplicate control samples.

kinases in BCWM.1 cells [2] = target: kinases in BCWM.1 cells (Homo sapiens, UniProt P23458); test: as above; format: cell-based; settings: JAK1 domain2; Activation Loop; 1 μM; no GF
Description: as §3

kinases in BCWM.1 cells [3] = target: kinases in BCWM.1 cells (Homo sapiens, UniProt P41240); test: as above; format: cell-based; settings: CSK; Activation Loop; 1 μM; no GF
Sequence of kinases in BCWM.1 cells (Homo sapiens, UniProt P41240) (P41240 2-450 limits assumed): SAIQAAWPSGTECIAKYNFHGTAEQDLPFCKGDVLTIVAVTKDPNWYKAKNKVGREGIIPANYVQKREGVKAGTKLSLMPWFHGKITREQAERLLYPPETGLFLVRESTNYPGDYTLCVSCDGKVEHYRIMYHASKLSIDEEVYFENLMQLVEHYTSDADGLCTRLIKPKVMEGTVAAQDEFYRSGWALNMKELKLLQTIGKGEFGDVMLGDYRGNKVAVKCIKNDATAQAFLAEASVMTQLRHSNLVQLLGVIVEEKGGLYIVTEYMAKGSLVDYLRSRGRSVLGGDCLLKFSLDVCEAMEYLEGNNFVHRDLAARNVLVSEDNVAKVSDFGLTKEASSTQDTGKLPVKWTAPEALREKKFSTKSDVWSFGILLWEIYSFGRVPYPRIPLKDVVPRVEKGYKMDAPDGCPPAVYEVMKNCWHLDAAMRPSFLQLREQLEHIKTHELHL
Description: as §3

kinases in BCWM.1 cells [4] = target: kinases in BCWM.1 cells (Homo sapiens, UniProt P50613); test: as above; format: cell-based; settings: CDK7; Lys2; 1 μM; no GF
Description: as §3

kinases in BCWM.1 cells [5] = target: T1, kinases in BCWM.1 cells (Homo sapiens, UniProt Q06187); test: as above; format: cell-based; settings: BTK; Activation Loop; 1 μM; no GF
T1 sequence (Q06187 2-659 limits assumed): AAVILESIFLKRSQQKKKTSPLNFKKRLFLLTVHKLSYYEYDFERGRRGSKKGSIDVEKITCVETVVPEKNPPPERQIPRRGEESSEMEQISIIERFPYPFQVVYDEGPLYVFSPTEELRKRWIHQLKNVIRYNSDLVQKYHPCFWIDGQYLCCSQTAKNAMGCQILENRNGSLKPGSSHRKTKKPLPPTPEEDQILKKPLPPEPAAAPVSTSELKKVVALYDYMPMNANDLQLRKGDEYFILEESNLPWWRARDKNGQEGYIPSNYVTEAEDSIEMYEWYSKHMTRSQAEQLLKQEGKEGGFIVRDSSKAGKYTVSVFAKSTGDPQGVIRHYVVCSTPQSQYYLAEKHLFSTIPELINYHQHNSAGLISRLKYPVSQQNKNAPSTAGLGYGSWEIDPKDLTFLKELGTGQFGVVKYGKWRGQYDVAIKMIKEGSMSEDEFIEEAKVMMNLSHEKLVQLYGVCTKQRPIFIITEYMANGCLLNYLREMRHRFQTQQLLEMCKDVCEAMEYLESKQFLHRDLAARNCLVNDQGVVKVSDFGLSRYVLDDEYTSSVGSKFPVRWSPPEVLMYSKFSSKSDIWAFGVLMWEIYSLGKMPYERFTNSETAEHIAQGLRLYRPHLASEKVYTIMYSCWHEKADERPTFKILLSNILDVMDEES
Description: as §3

kinases in BCWM.1 cells [6] = target: kinases in BCWM.1 cells (Homo sapiens, UniProt P78356); test: as above; format: cell-based; settings: PIP4K2B; ATP; 1 μM, 90 min; no GF
Description: as §3

kinases in BCWM.1 cells [7] = target: kinases in BCWM.1 cells (Homo sapiens, UniProt O14733); format: cell-based; settings: MAP2K7; Lys2; 1 μM; GF
Sequence of kinases in BCWM.1 cells (Homo sapiens, UniProt O14733) (O14733 2-419 limits assumed): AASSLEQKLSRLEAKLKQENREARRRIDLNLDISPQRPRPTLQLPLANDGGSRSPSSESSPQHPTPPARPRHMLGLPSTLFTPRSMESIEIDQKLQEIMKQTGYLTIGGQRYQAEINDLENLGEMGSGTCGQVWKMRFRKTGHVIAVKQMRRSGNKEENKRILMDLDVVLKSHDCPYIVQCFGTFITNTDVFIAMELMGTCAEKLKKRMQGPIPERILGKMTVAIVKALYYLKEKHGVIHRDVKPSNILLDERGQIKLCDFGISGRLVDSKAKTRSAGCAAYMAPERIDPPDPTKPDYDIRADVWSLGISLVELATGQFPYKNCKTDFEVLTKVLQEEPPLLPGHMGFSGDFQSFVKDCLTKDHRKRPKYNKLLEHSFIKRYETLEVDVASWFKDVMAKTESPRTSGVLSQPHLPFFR
Description: as §3

kinases in BCWM.1 cells [8] = target: kinases in BCWM.1 cells (Homo sapiens, UniProt P15056); format: cell-based; settings: BRAF; Lys2; 1 μM; GF
Description: as §3

kinases in BCWM.1 cells [9] = target: kinases in BCWM.1 cells (Homo sapiens, UniProt P49841); format: cell-based; settings: GSK3B; Lys2; 1 μM; GF
Description: as §3

kinases in BCWM.1 cells [10] = target: kinases in BCWM.1 cells (Homo sapiens, UniProt P50750); format: cell-based; settings: CDK9; Lys2; 1 μM; GF
Description: as §3

kinases in BCWM.1 cells [11] = target: kinases in BCWM.1 cells (Homo sapiens, UniProt P78368); format: cell-based; settings: CK1g2; Lys2; 1 μM; GF
Description: as §3

kinases in BCWM.1 cells [12] = target: T1, kinases in BCWM.1 cells; format: cell-based; settings: BTK; Activation Loop; 1 μM; GF
Description: as §3

kinases in BCWM.1 cells [13] = target: kinases in BCWM.1 cells (Homo sapiens, UniProt Q16659); format: cell-based; settings: Erk3; Lys2; 1 μM; GF
Description: as §3

kinases in BCWM.1 cells [14] = target: kinases in BCWM.1 cells (Homo sapiens, UniProt Q96GX5); format: cell-based; settings: MASTL, 1 μM, GF
Description: as §3

kinases in BCWM.1 cells [15] = target: kinases in BCWM.1 cells (Homo sapiens, UniProt Q9Y2U5); format: cell-based; settings: MAP3K2; Lys1; 1 μM; GF
Description: as §3

For C=CC(=O)N1CCCCC(Nc2nccc(Nc3ncc(C(=O)Nc4c(C)cccc4C)s3)n2)C1 (centres unmarked) [Example I-7], the “% change of MS signal compared to control sample” value (“% change of MS signal” for short) (MAP2K1, MAP2K2) was 7.4% and the “% change of MS signal” value (p38a) was 69.8% and 51.2%.
C=CC(=O)N1CC[C@@H](Nc2nccc(Nc3ncc(C(=O)Nc4c(C)cccc4C)s3)n2)C1 [Example I-4] was tested, and the “% change of MS signal” value (CDK7) was 21.6% and 16.8%, the “% change of MS signal” value (DNAPK) was −80.8% and the “% change of MS signal” value (IKKb) was 3.1% and 4.4%. The “% change of MS signal” value (JAK3 domain2) was −30.8% and the “% change of MS signal” value (PFTAIRE1) was 15.3% and 6.3%.
C=CC(=O)N1CCC(Cn2ccc(Nc3ncc(C(=O)Nc4c(C)cccc4Cl)s3)n2)C1 (centres unmarked) [II-1] gave an IC50 (BTK) of 1.1 nM, an EC50 (BCWM.1) of 84 nM and an EC50 (HBL-1) of 735 nM. The EC50 (MWCL-1) was 121 nM, the EC50 (OCI-Ly19) was 7880 nM and the EC50 (Ramos) was greater than 20000 nM. The EC50 (TMD-8) was 573 nM and the “% change of MS signal” value (SLK) was 0.0% and −3.6%.
C=CC(=O)N1CCC(CNc2nccc(Nc3ncc(C(=O)Nc4c(C)cccc4C)s3)n2)C1 (racemic) [Example I-8] was tested, and the “% change of MS signal” value (NDR1) was −0.8% and 2.2%.
In the case of C=CC(=O)N1CC[C@H](Nc2nccc(Nc3ncc(C(=O)Nc4c(C)cccc4C)s3)n2)C1 [Example I-3], the “% change of MS signal” value (kinases in BCWM.1 cells [1]) is reported as 12.7%, the “% change of MS signal” value (kinases in BCWM.1 cells [2]) is reported as −2.9% and −1.6% and the “% change of MS signal” value (kinases in BCWM.1 cells [3]) is reported as 36% and 60.3%. For the same compound, the “% change of MS signal” value (kinases in BCWM.1 cells [4]) was 8.9% and 5.1% and the “% change of MS signal” value (kinases in BCWM.1 cells [5]) was 94.7% and 95.2%.
For CCC(=O)N1CC[C@H](Nc2nccc(Nc3ncc(C(=O)Nc4c(C)cccc4C)s3)n2)C1 [Example I-9], the “% change of MS signal” value (kinases in BCWM.1 cells [6]) was 17.6%, the “% change of MS signal” value (kinases in BCWM.1 cells [7]) was −2.8% and −0.3% and the “% change of MS signal” value (kinases in BCWM.1 cells [8]) was −18.3% and −12.9%. The “% change of MS signal” value (kinases in BCWM.1 cells [9]) was −9.8% and −1.3%, the “% change of MS signal” value (kinases in BCWM.1 cells [10]) was 32.7% and 23.1% and the “% change of MS signal” value (kinases in BCWM.1 cells [11]) was −8.9% and −10.9%. The “% change of MS signal” value (kinases in BCWM.1 cells [12]) was 96.7% and 70.7%, the “% change of MS signal” value (kinases in BCWM.1 cells [13]) was 16.9% and 25.3% and the “% change of MS signal” value (kinases in BCWM.1 cells [14]; ATP Loop) was 0.4% and 1.8%. The “% change of MS signal” value (kinases in BCWM.1 cells [14]; Lys1) was 2.4% and 8% and the “% change of MS signal” value (kinases in BCWM.1 cells [15]) was −16.2% and −8.3%.
